Data reported in US20040253243A1, “Aptamer therapeutics useful in ocular pharmacotherapy” (priority 2003, published 2004).
{PEG30K} = 30 kDa polyethylene glycol, attached through the amine; {3T} = T cap; {PEG20K} = 20 kDa polyethylene glycol; [invdT] = inverted (3'-3') thymidine; {NH2} = amine group; m = 2'-O-methyl; r = 2'-OH (RNA); f = 2'-fluoro

Columns and labels:
[1] = tested on: PDGF AB and BB; test: PDGF binding (Kd); design: species or system human; details: read-out: Kd, PDGF AB and BB
[2] = target: T1, TGFβ2 (Homo sapiens, UniProt P61812); test: Dot blot binding of doped reselection aptamers to TGFβ2; design: For bio-chemical characterization of these aptamers, two forms of mature TGFβ2 were generated, native and N-terminal his-tagged versions, in E. coli; details: CW128_103
T1 sequence (P61812 303-414 limits assumed): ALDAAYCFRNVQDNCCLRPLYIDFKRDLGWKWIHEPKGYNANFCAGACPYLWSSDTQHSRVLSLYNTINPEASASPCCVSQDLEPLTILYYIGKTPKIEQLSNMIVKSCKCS
Method: TGFβ2 was serially diluted in DPBS containing 0.2 mg/ml BSA and 0.2 mg/ml tRNA. ^32P-labeled RNA (<20 pM) were incubated with TGFβ2 at room temperature for 30 min. Samples were pipetted with a multichannel pippetor onto a multiwell manifold holding layers of pre-wetted 0.45 micron nitrocellulose, hybond membrane, 3MM filter paper (the order is from top to bottom), aspirated, and washed 3× with DPBS (containing tRNA). All three filters were air dried, exposed to phosphorimager plate, analyzed by ImageQuant.

[3] = Pharmacokinetics via subconjunctival administration; assay type: in vivo, mice; details: for AUC (0-t) / Cmax / MRT / TLAST / t1/2 / tmax / Vd: subconjunctival, 1 mg/eye bilaterally; for detection in the aqueous humor: after subconjunctival administration
Method: A pharmacokinetic study was performed to determine the pharmacokinetics of ARC81, ARC117 and ARC119, TGFβ2 aptamers having the sequences of SEQ ID NOs:4, 9 and 11, respectively), via subconjunctival administration in mice. These aptamers were formulated at a concentration of 10 mg/ml. Samples were collected at 0, 0.5, 1, 2, 6, 12, 24, 48 and 96 hours post-administration. FIGS. 21A, 21B and 21C show the aqueous humor and/or plasma concentration of each aptamer (in nM) through 50 hours post dose via subconjunctival administration.

[4] = target: T1, TGFβ2; test: Nitrocellulose-filter partitioning binding of 32P-labeled aptamer to TGFβ-2 protein; design: A synthetic polynucleotide encoding full length human TGFβ2 mature protein was cloned into pRSET E. coli expression vector; made in house
Method: Dissociation constants for the binding of aptamers to purified human or rodent TGFβ-2 protein were determined by nitrocellulose-filter partitioning using ^32P-labeled RNA. In vitro transcribed RNA was treated with calf-intestinal alkaline phophatase (New England Biolabs) to remove 5′-triphosphates, then radio-labeled by incubation with γ-^32P-ATP and T4 polynucleotide kinase (New England Biolabs). Unincorporated label was removed by gel-filtration, and the RNAs were further purified by polyacrylamide gel electrophoresis (PAGE). Purified ^32P-labeled aptamer in water was refolded just prior to use by heating for 3 min at 95° C., followed by a 10 minute room-temperature incubation in binding buffer (50 mM Hepes, pH 7.4, 1 mM MgCl2, 1 mM CaCl2, 3 mM KCl, 140 mM NaCl, 0.1 mg/ml BSA, 0.01 mg/ml tRNA). The binding reactions (100 μL) were initiated by the addition of aptamer (≦0.1 nM) to excess TGFβ-2 protein (0.2-100 nM), followed by 10-30 minute equilibration at room temperature.
Nitrocellulose-filter partitioning was performed on Minifold® I, 96-well Dot-Blot manifolds (Schleicher & Schuell). Protein-bound aptamer and residual free aptamer were captured, respectively, on pre-wetted Protran nitrocellulose (Schleicher & Schuell) and Hybond-P polyvinylidene difluoride (Amersham Biosciences) filters by vacuum aspiration, and quantified by PhosphorImager (Amersham Biosciences). The proportion of protein-bound aptamer at each TGFβ-2 concentration was plotted as the ratio of counts-per-minute on the Protran nitrocellulose filter (CPMNC) to the sum of CPM on the Protran and Hybond-P filters (CPMtotal). Estimates of dissociation constants (KD) were obtained from a fit of the concentration of TGFβ-2 (i.e., [TGFβ-2])-dependent data to a standard binding isotherm: CPMNC/CPMtotal=Cmax/(1+KD/[TGFβ2]total), where Cmax equals the maximum observed value of CPMNC/CPMtotal at saturating [TGFβ-2], likely reflecting the proportion of properly-folded aptamer that is competent to recognize TGFβ-2.

[5] = target: T2, human TGFβ2 (Homo sapiens, UniProt P61812); test: MLEC proliferation assay (reversal of TGFβ2-mediated inhibition, BrdU); assay type: cell-based
T2 construct: two forms of mature TGFβ2 were generated, native and N-terminal his-tagged versions, in E. coli; made in house; host or cells: E. coli; added as soluble protein to MLEC
T2 sequence (P61812 303-414): T1 sequence (P61812 303-414 limits assumed)
Method: MLECs were plated at 2,000 cells per well and incubated at 37° C. for 4 hours. Aptamer and TGFβ2 were added at the indicated concentrations for 16 hours at 37° C. Cell proliferation was measured using BrdU incorporation. BrdU assay was performed as recommended by the manufacturer (Roche Diagnostics).
MLEC Assay. The mink lung epithelial cell proliferation assay is performed over two days. On day 1:1) media is aspirated off from Mink Lung Epithelial Cells (MLEC); 2) the MLEC are washed with 10 ml 1×PBS; 3) 3 ml Trypsin is added and Trypsinize for 3 min at 37° C.; 4) quench with 10 ml 0.5% FBS media; 5) spin at 1000 rpm for 3.30 min; 6) aspirate off supernatant; 7) resuspend pellet in 10 ml 0.5% FBS media; 8) Count 10 μl cell suspension; 9) adjust cell density to 80,000 cells/ml; 10) add 50 μl of cells/well to black bottomed 96-well plates (4000 cells/well); pipet up and down during plating process to avoid settling of cells and uneven plating; 11) incubate cells at 37° C. in 5% CO2 for 4 hrs to allow adherence of cells; 12) add 25 μl of aptamer (or media, or other test reagent, such as for example, an antibody), preferably the outer wells are not used for treated cells; 13) add 25 μl of TGFβ2 (typically 25 pg/ml); and 14) incubate cells at 37° C. in 5% CO2 overnight.
On day 2:1) mix 20 μl BrdU with 2 ml 0.5% FBS media; 2) add 10 μl of BrdU mixture/well; 3) incubate cells at 37° C. in 5% CO2 for 3 hrs; 4) remove media and blot plates dry on paper towels; 5) add 200 μl/well FixDenat solution and incubate for 30 min at room temperature (RT); 6) remove FixDenat solution and blot plates dry on paper towels; 7) add 100 μl /well anti-BrdU POD solution and incubate for 90 min at RT; 8) remove anti-BrdU POD solution and blot plates dry on paper towels; 9) wash plates 3× with […] washing solution with 5 min RT incubations and blot plates dry on paper towels; 10) add 100 μl /well substrate solution and incubate for 3 min at RT in dark; and 11) read plates using PSP Luciferace 1 program on TopCount (Packard Bioscience Co., Downers Grove, Ill.).

Chain of PDGF AB and BB (P01127 82-190 limits assumed): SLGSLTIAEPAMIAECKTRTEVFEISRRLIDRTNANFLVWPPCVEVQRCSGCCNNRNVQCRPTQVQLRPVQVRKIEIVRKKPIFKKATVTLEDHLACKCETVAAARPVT

## 5′-TdGdGdGdAdGdGdGdCdGdCdGTTdCTTdCdGTdGdGTTdAdCTTTTdAdGTdCdCdCdG-3T-3′ (TGGGAGGGCGCGTTCTTCGTGGTTACTTTTAGTCCCG; 3' [invdT], sugars by position and backbone not given here; further chemistry not fully specified) [ARC123]
[1]
  Kd: 0.1 nM

## AfCAGAGfUAfUfUAfUAGAGfUAfUGfUAfUAGfCfUAfUAfCfUGfUfC[3T] (ACAGAGUAUUAUAGAGUAUGUAUAGCUAUACUGUC; 2'-fluoro at CU, RNA at AG, 3' {3T}, backbone not given here) [ARC283, minimized S5CR8-45]
[2]
  Kd: 1.27 nM

## 5′-[PEG20K]-NH2-mGmGmGmGfUfUAfUfUmAfCmAmGmAmGfUfCfUGfUAfUAmGfCfUmGfUmAfCfCfC-3T-3′ (GGGGUUAUUACAGAGUCUGUAUAGCUGUACCC; sugars from the 5' end mmmmffrffmfmmmmfffrfrfrmffmfmfff, 5' {PEG20K}-{NH2}, 3' {3T}, backbone not given here; PEG attached through 5' amine linker) [ARC117]
[3]; Aq Humour
  AUC (0-t): 87.6 nM·h
  Cmax: 22.9 nM
  MRT: 3.62 h
  TLAST: 24 h
  t1/2: 4.33 h
  tmax: 1 h
[3]; PLASMA
  AUC (0-t): 1,122.1 nM · h
  Cmax: 145 nM
  MRT: 9.22 h
  TLAST: 48 h
  Vd: 1760 mL
  t1/2: 7.40 h
  tmax: 6 h
[3]
  detection in the aqueous humor: detected in the aqueous humor

## AfUAGAGfCAfUfUAfUAGAGfUAfUGfUAfUAGfCfUAfUAfCfUAfU[3T] (AUAGAGCAUUAUAGAGUAUGUAUAGCUAUACUAU; 2'-fluoro at CU, RNA at AG, 3' {3T}, backbone not given here) [CW128.10.F, minimized AMX(71)_C11]
[2]
  Kd: 3.66 nM

## 5′-[PEG30K]-NH2-mGmGmGmGfUfUAfUfUmAfCmAmGmAmGfUfCfUGfUAfUAmGfCfUmGfUmAfCfCfC-3T-3′ (GGGGUUAUUACAGAGUCUGUAUAGCUGUACCC; sugars from the 5' end mmmmffrffmfmmmmfffrfrfrmffmfmfff, 5' {PEG30K}-{NH2}, 3' {3T}, backbone not given here) [ARC119]
[3]; Aq Humour
  AUC (0-t): 133.2 nM·h
  Cmax: 28.4 nM
  MRT: 12.80 h
  TLAST: 48 h
  t1/2: 17.52 h
  tmax: 0.5 h
[3]; PLASMA
  AUC (0-t): 13,380.5 nM · h
  Cmax: 721 nM
  MRT: 17.28 h
  TLAST: 48 h
  Vd: 137 mL
  t1/2: 6.94 h
  tmax: 12 h
[3]
  detection in the aqueous humor: detected in the aqueous humor

## GAfCAGAGfUAfUfUAfUAGAGfUAfUGfUAfUAGfCfUAfUAfCfUGfU[3T] (GACAGAGUAUUAUAGAGUAUGUAUAGCUAUACUGU; 2'-fluoro at CU, RNA at AG, 3' {3T}, backbone not given here) [ARC284, minimized S5R8-45]
[2]
  Kd: 0.11 nM

## 5′-TdAdCTdCdAdGdGdGdCdAdCTdGdCdAdAdGdCdAdATTdGTdGdGTdCdCdCdAdATdGdGdGdCTdGdAdGTdA-3T-3′ (TACTCAGGGCACTGCAAGCAATTGTGGTCCCAATGGGCTGAGTA; 3' [invdT], sugars by position and backbone not given here; further chemistry not fully specified) [ARC125]
[1]
  Kd: 0.1 nM

## 5′-mGmGmAmGmGfUfUAfUfUmAfCmAmGmAmGfUfCfUGfUAfUAmGfCfUmGfUmAfCfUfCfc-3T-3′ (GGAGGUUAUUACAGAGUCUGUAUAGCUGUACUCC; sugars from the 5' end mmmmmffrffmfmmmmfffrfrfrmffmfmffff, 3' {3T}, backbone not given here) [ARC79]
[4]; read-out: KD
  Kd: 1 nM
[5]; read-out: cell IC50
  IC50: 10 nM

## 5′-NH2-GGAGGfUfUAfUfUAfCAGAGfUfCfUGfUAfUAGfCfUGfUAfCfUfCfC-3T-3′ (GGAGGUUAUUACAGAGUCUGUAUAGCUGUACUCC; 2'-fluoro at CU, RNA at AG, 5' {NH2}, 3' {3T}, backbone not given here) [ARC78]
[4]; 32P-labeled aptamer, nitrocellulose-filter partitioning, fit to Equation 1, read-out: Kd
  Kd: 4 nM
[5]; 50 pg/ml of TGFβ2, BrdU incorporation
  inhibition of the antiproliferative effects of TGFβ2: inhibit the antiproliferative effects of 50 pg/ml of TGFβ2

## AGGGAAfUAfUfUAfUAGAGfUAfUGfUAfUAGfCfUAfUAfCfCAfU[3T] (AGGGAAUAUUAUAGAGUAUGUAUAGCUAUACCAU; 2'-fluoro at CU, RNA at AG, 3' {3T}, backbone not given here) [ARC282, minimized AMX(71)_A8]
[2]
  Kd: 0.62 nM

## AAGGAGfUAfUfUAfUAGAGfUAfUGfUAfUAGfCfUAfUAfCfCAfU[3T] (AAGGAGUAUUAUAGAGUAUGUAUAGCUAUACCAU; 2'-fluoro at CU, RNA at AG, 3' {3T}, backbone not given here) [ARC281, minimized S5CR12-15]
[2]
  Kd: 1.42 nM

## 5′-dCdAdCdAdGdGdCTdAdCdGdGdCdAdCdGTdAdGdAdGdCdATdCdAdCdCdATdGdATdCdCTdGTdG-3T-3′ (CACAGGCTACGGCACGTAGAGCATCACCATGATCCTGTG; 3' [invdT], sugars by position and backbone not given here; further chemistry not fully specified) [ARC124]
[1]
  Kd: 0.1 nM
